Results published in US6252094A (The Scripps Research Institute, priority 1999, dated 2001).
Each block holds one molecule with its values, some of them ahead of it.

Assays:
cervical carcinoma = experiment: Cytotoxicity (XTT, 72 hours), cervical carcinoma
human leukemia = experiment: Cytotoxicity (XTT, 72 hours), human leukemia
tubulin [1] = details: background; cited from earlier work
tubulin [2] = experiment: Microtubule polymerization-depolymerization measurements (turbidity at 340 nm); assay type: biochemical; details: for suppression of calcium chloride promoted depolymerization: 10^-6 M drug, 1.0 mg/mL tubulin, 0.25 mM CaCl2, 37° C.
Procedure: Tubulin polymerization-depolymerization measurements are illustrate in FIG. 3. Negative controls are shown with triangles; positive taxol controls are shown with diamonds; and taxol-2'-MPT, i.e., compound 2 is shown with dots.
More particularly, measurement were performed in 96 well plates at 37° C. following the protocol of R. Merlock and W. Wrasidlo (Analytical Biochemistry 1993, in press). Calcium chloride addition is indicated by the arrow. In each case, 1.0 mM GTP was used to promote the initial polymerization of tubulin. Negative control employed tubulin (1.0 mg/mL) alone, CaCl2 (0,25 mM) added after 20 minutes. Positive taxol control employed tubulin (1.0 mg/mL) with taxol (10^-6 M) and CaCl2 (0.25 mM) added after 20 minutes. The experimental taxol-2'-MPTemployed tubulin (1.0 mg/mL) with taxol-2'-MPT (10^-6) and CaCl2 (0.25 mM) added after 20 minutes. Turbidity was measured as optical density at 340 nm using a microplate reader (Molecular Devices Thermomax).

albumin = details: sera; cited from earlier work
metastatic melanoma = experiment: Cytotoxicity (XTT, 72 hours), metastatic melanoma
[3] = Octanol/water partition coefficient by HPLC
Procedure: (§1) The solubility and partition coefficient data for 2 and taxol were determined using an HPLC method.
(§2) Solubility was found by forming a solution in water with the aid of sonication for five minutes, centrifugation of the samples, and injection of the supernatant. The values reported were normalized using calibration curves constructed for both compounds by preparing known concentrations in the range 1×10^-6 to 1×10^-3 M in methylene chloride and subjecting to HPLC analysis under the same conditions. […] Partition coefficients were determined by dissolving the compound in the organic phase, shaking the resulting solution with water for ten minutes, and analyzing each phase by HPLC as above.

[4] = background statement; cited from earlier work
[5] = Solubility in water by HPLC (sonication, centrifugation, injection of supernatant); assay type: physicochemical
Procedure: as §1, §2

serum albumen = experiment: Displacement of MPT group by serum albumin
Source text: (§3) However, the release of taxol from taxol-2'-MPT can also be catalyzed by serum protein and by proteins having nucleophilic groups. […] Dialysis of the protein:taxol intermediate indicates a dissociation period of hours or days. Displacement of the MPT group by serum proteins seems to be specific for such serum proteins. […] The precise nature of the bonding between the protein and taxol has not been characterized. Scheme 2 illustrates alternative pathways for MPT release.

[6] = Stability/kinetics of taxol release from taxol-2'-MPT in plasma; assay type: in vitro ADME, human
Procedure: (§4) Due to a difference in retention time using our standard HPLC conditions (see FIG. 1) and differing ultraviolet absorption maxima (1280 /1254 =1.6 for 2 and 0.3 for 1), the stability of 2 was easily assayed by HPLC (FIG. 1). […] In phosphate buffered saline (PBS) or ammonium acetate--phosphate buffer systems of pH 6.0 to 7.3, 2 is stable at 25° C. for over 21 days. Taxol-2'-MPT (2) is, however, unstable in 5% HCl (pH 1.1) and brine.
(§5) Under these conditions 20% of total is recovered. More particularly, Taxol-2'-MPT (2) was dissolved in the aqueous system with the aid of sonication for five minutes. Aliquots were then removed at the times shown and partitioned into methylene chloride to quench the reaction. Samples were then analyzed using a Waters Maxima HPLC instrument equipped with an autoinjector (3.9×300 mm C18 column equipped with a precolumn. The flow rate was 1.5 mL/minute. The eluent gradient A-B extended over 30 minutes. "A" was 80% 80 mM ammonium acetate, pH 6.0. "B" was 100% methanol. An ultraviolet diode array detector was employed. The ratio of compound 2 (Rf 16.2 min.) to taxol (compound 1, Rf 16.8 min.) remaining was determined from the relative areas of the peaks after normalization with previously determined calibration curves.

[7] = Stability of taxol-2'-MPT by HPLC (solid state, aqueous media); assay type: physicochemical
Procedure: as §4

serum protein = experiment: Displacement of MPT group by serum protein
Source text: as §3

[8] = Self-assembly: optical clarity, OD at 340 nm, TEM; assay type: physicochemical; details: for morphology of self-assembled structures in buffered solutions: 1 mM in 100 mM PBS
Source text: Transmission electron microscopy (TEM) confirmed the presence of supramolecular structures in these solutions. […] It is likely that the long term stability of these solutions is due, at least in part, to stabilization provided by this structured environment.

immunoglobulins = experiment: Displacement of MPT group by immunoglobulins
Source text: as §3

non-serum proteins = experiment: Displacement of MPT group by non-serum proteins
Source text: as §3

[9] = test system: A549 non-small cell lung adenocarcinoma; experiment: Efficacy in lung tumor xenograft nude mouse model
[10] = Kinetics of taxol release from taxol-2'-MPT in aqueous solutions at 25° C.; assay type: physicochemical; details: sterile water, pH 6.2 PBS or 5% dextrose, over 11 minutes
Procedure: as §5

[11] = water, 5% dextrose, 1.5% saline

SMILES: CC(=O)O[C@H]1C(=O)[C@@]2(C)[C@H]([C@H](OC(=O)c3ccccc3)[C@]3(O)C[C@H](OC(=O)[C@H](O)[C@@H](NC(=O)c4ccccc4)c4ccccc4)C(C)=C1C3(C)C)[C@]1(OC(C)=O)CO[C@@H]1C[C@@H]2O [taxol, reference compound]
cytotoxicity level, cervical carcinoma (cervical carcinoma): Extremely high | cytotoxicity level, human leukemia (human leukemia): Extremely high | effect of taxol binding on tubulin (tubulin [1]): prevents its polymerization and the formation of microtubules | suppression of calcium chloride promoted depolymerization (tubulin [2]): suppressed by taxol | microtubule stabilization by taxol recovered from human plasma treated with 2 (tubulin [2]; taxol recovered from plasma): exhibited the expected microtubule stabilization | taxol binding to albumin (albumin): ca. 85% | cytotoxicity level, metastatic melanoma (metastatic melanoma): Extremely high | Partition Coefficient [octanol]/[water] [3]: > 10000 | water solubility [4]: less than 1.5×10^-6 molar

degradation during solubility and partition studies [5]: No degradation | solubility ([5]; water, HPLC, table value): 1700 µM | effectiveness in displacing MPT group, serum albumin (serum albumen): particularly effective | degradation in human plasma ([6]; human plasma, 37° C.): breaks down rapidly | recovery ([6]; human, plasma, methylene chloride extraction, read-out: total recovered from plasma): 20% | total recovered from plasma ([6]; plasma, methylene chloride extraction): 20% | time to complete conversion of 2 into taxol in plasma ([6]; plasma, methylene chloride extraction, 25° C. per FIG. 1): ≤ 10 min | discharge of taxol in sera ([6]; sera): rapidly discharges taxol in sera | stability in 5% HCl and brine ([7]; 5% HCl (pH 1.1) and brine): unstable | stability period in buffer ([7]; PBS or ammonium acetate-phosphate buffer, pH 6.0 to 7.3, 25° C.): over 21 days | stability in aqueous media (discussion) ([7]; aqueous media, physiological pH and ion strength): essentially completely stable | stability in most aqueous media (discussion) ([7]; most aqueous media): remarkably stable | onset of slow degradation [7, 11]: > 4 days | stability in water, 5% dextrose, and 1.5% saline [7, 11]: stable for several days | morphology of self-assembled structures in unbuffered solutions ([8]; 1 mM in H2O, TEM): self-assembled spherical nanostructures | diameter of fibrillar aggregates ([8]; TEM): ca. 80 Å | helical twist of aggregates ([8]; TEM): about 7 | length of fibrillar aggregates ([8]; TEM): up to 800 Å | concentration above which haze is exhibited ([8]; buffered solutions): greater than 1×10^-3 M | critical concentration (exponential increase in OD at 340 nm) ([8]; buffered solutions, 340 nm): 400 µM | diameter of spherical structures ([8]; freshly sonicated solutions, TEM): about 50 Å | optical appearance of water solutions ([8]; water, all concentrations examined): optically clear | effectiveness in displacing MPT group, immunoglobulins (immunoglobulins): particularly effective | logP [3]: 1.7 | MPT-displacing activity of non-serum proteins (non-serum proteins): seemed to lack this activity | conversion to taxol in vivo ([9]; inferred from the xenograft results): converted rapidly to taxol in vivo | taxol release in aqueous media [10]: no taxol release is observed
SMILES: CC(=O)O[C@H]1C(=O)[C@@]2(C)[C@H]([C@H](OC(=O)c3ccccc3)[C@]3(O)C[C@H](OC(=O)[C@H](Oc4cccc[n+]4C)[C@@H](NC(=O)c4ccccc4)c4ccccc4)C(C)=C1C3(C)C)[C@]1(OC(C)=O)CO[C@@H]1C[C@@H]2O [taxol-2'-MPT]
cytotoxicity level, cervical carcinoma (cervical carcinoma): Extremely high | solubility compared with clinically relevant dosages (3 to 30 mM) ([5]; range of aqueous systems): higher than the clinically relevant dosages | water solubility compared with parent taxol ([5]; relative to taxol): significantly more soluble in water than the parent taxol | cytotoxicity level, human leukemia (human leukemia): Extremely high | degradation products detected ([7]; HPLC): taxol and the pyridinone that results from hydrolysis of pyridinium salts | suppression of calcium chloride promoted depolymerization (tubulin [2]): not by taxol-2'-MPT | microtubule polymerization-depolymerization (tubulin [2]; GTP-saline controls and taxol as comparators): very similar to GTP-saline controls and drastically different from taxol | effect on tubulin-microtubule equilibria (tubulin [2]; buffered aqueous assay): does not affect the tubulin-microtubule equilibria | binding to tubulin (tubulin [2]; inferred from the polymerization assay): does not appear to bind to tubulin in the manner of taxol | displacement of MPT group on contact with serum protein (serum protein): observed to displace its MPT group and form a protein:taxol intermediate | morphology of self-assembled structures in buffered solutions ([8]; TEM): self-assembled helical fibrous nanostructures | morphology of self-assembled structures in buffered solutions ([8]; TEM, listed as 2): Uniform aggregates of fibrillar structure | cytotoxicity level, metastatic melanoma (metastatic melanoma): Extremely high | control of tumor growth ([9]; I.P. day 1, 3, 7, taxol 18.0 mg/kg, taxol-2'-MPT 23.9 mg/kg, preliminary data): at least comparable to that of taxol
